For four molecules, IC50, MIC and IC90 results are on record in US11098055B2, “Ester ACC inhibitors and uses thereof” (Gilead Apollo, LLC, priority 2015, dated 2021).

In brackets after ≈: the same amount, converted by molar mass. Like-named read-outs stand apart in the source and are kept apart here.

In assay [1] the test system is ACC1. To be noted: enzyme isolated from rat, mouse, monkey and human; cited from earlier work.
Assay [2] deals with ACC2. To be noted: enzyme isolated from rat, mouse, monkey and human; cited from earlier work.
The target of assay [3] is hACC2 (Homo sapiens, UniProt O00763). The assay is described as follows: In vitro ACC2 inhibition assay (ADP-Glo), human ACC2. The class given is biochemical. The protocol:
(§1) An exemplary procedure for the in vitro ACC inhibition assay, which can be used to determine the inhibitory action of compounds of the invention toward either human (hACC2) or fungal (fACC2) ACC2, follows. The ADP-Glo™ Kinase Assay kit from Promega was used. The ADP-Glo™ Kinase Assay is a luminescent ADP detection assay to measure enzymatic activity by quantifying the amount of ADP produced during an enzyme reaction. The assay is performed in two steps; first, after the enzyme reaction, an equal volume of ADP-Glo™ Reagent is added to terminate the reaction and deplete the remaining ATP. Second, the Kinase Detection Reagent is added to simultaneously convert ADP to ATP and allow the newly synthesized ATP to be measured using a luciferase/luciferin reaction. Luminescence can be correlated to ADP concentrations by using an ATP-to-ADP conversion curve. The detailed procedure is as follows. 50 μL of the compound being tested (600 μM in DMSO) was added to a 384-well dilution plate. The compound was diluted 1:3 in succession in DMSO for each row for 11 wells. 0.5 μL ACC2 working solution was added to 384-well white Optiplate assay plate. 0.5 μL diluted compound solution in each column from step 2 was added to assay plate, each row containing 2 replicates. For the last 2 rows, 0.5 μL negative control (DMSO) was added in one row and 0.5 μL positive control (compound I-97) in the other. The plates were incubated at room temperature for 15 minutes. 5 μL substrate working solution was added to each well to initiate reaction. Final ACC2 reaction concentrations consist of: 5 nM ACC2, 20 μM ATP, 20 μM acetyl-CoA, 12 mM NaHCO3, 0.01% Brij35, 2 mM DTT, 5% DMSO, test compound concentrations: 30 μM, 10 μM, 3.33 μM, 1.11 μM, 0.37 μM, 0.123 μM, 0.0411 μM, 0.0137 μM, 0.00457 μM, 0.00152 μM, and 0.00051 μM. Plates were incubated at room temperature for 60 minutes. 10 μL ADP glo reagent was added. Plates were incubated at room temperature for 40 minutes. 20 μL kinase detection reagent was added. Plates were incubated at room temperature for 40 minutes, and then read on a Perkin Elmer EnVision 2104 plate reader for luminescence as Relative Light Units (RLU).
(§2) Data for each concentration, as well as the positive and negative controls, were averaged, and the standard deviation calculated. Percent inhibition was calculated by the formula: 100×(average negative control−compound)/(average negative control−average positive control). The IC50 for each compound was calculated by fitting the data with a non-linear regression equation: Y=Bottom+(Top−Bottom)/(1+10^((Log IC50−X)*HillSlope)), where X is the log of compound concentration and Y is percent inhibition.

In assay [4] the target is fACC2 (UniProt Q00955). The assay is described as follows: In vitro ACC2 inhibition assay (ADP-Glo), fungal ACC2. Type of assay: biochemical. The protocol: as §1, §2
Sequence of fACC2 (Q00955 whole entry): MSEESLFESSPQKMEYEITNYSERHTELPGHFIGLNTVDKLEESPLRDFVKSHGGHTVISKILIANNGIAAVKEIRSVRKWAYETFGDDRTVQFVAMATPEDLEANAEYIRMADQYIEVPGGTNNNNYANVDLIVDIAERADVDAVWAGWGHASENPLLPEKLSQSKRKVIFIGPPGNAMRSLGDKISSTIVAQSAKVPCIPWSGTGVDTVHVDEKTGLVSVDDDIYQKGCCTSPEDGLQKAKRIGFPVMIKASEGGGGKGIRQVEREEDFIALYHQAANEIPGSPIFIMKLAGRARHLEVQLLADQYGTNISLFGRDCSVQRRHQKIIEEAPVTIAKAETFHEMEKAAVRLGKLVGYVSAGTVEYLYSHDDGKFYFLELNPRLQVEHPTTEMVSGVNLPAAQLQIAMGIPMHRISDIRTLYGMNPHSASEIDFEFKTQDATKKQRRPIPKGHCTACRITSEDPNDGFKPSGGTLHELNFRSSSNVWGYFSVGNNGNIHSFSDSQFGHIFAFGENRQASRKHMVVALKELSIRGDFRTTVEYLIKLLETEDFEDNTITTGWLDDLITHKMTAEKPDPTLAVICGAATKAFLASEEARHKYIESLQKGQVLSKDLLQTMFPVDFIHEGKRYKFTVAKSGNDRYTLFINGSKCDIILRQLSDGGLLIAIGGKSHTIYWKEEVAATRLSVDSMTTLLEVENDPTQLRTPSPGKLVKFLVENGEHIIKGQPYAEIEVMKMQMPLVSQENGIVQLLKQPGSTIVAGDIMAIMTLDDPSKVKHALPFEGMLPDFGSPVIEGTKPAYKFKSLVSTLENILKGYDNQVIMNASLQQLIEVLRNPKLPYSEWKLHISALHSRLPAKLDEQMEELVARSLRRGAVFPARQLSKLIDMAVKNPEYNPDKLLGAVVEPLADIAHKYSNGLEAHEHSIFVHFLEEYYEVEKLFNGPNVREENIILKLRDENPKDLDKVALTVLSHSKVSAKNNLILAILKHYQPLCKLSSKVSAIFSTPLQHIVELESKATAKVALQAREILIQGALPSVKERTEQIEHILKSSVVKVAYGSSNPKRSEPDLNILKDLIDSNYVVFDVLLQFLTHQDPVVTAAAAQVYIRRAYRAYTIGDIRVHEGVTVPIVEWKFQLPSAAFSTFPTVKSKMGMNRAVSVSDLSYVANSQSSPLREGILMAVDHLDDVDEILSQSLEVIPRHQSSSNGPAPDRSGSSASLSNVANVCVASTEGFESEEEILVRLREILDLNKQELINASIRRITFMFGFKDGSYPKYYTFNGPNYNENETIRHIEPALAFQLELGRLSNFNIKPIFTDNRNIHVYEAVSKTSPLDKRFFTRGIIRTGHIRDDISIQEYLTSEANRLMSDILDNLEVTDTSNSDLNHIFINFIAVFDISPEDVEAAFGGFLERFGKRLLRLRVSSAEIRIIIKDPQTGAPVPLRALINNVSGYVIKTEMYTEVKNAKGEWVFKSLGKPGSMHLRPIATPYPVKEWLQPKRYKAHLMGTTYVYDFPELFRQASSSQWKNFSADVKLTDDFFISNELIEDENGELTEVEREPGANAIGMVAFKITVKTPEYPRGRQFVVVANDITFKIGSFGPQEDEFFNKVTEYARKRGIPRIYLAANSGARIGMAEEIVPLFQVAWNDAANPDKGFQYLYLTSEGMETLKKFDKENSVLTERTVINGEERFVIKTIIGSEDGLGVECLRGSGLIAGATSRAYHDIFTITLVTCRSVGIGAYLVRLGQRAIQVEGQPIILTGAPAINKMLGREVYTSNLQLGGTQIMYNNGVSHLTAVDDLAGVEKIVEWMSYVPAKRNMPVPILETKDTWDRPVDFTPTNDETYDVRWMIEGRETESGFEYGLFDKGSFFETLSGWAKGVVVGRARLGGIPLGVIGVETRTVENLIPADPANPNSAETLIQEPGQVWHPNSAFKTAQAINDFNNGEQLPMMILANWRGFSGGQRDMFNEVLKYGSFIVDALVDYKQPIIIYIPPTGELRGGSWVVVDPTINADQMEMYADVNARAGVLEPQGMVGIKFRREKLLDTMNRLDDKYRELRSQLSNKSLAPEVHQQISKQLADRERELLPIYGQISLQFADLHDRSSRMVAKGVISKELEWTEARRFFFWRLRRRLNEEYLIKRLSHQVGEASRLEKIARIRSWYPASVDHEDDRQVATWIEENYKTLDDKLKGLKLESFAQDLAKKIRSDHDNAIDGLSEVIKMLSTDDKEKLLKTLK
Assay [5] deals with C. albicans ATCC 90028. The assay is described as follows: Anti-Fungal (Candida) Activity Assay, broth microtiter MIC. Type of assay: cell-based. To be noted: ATCC90028, 48 h, 3 replicates, MIC read at 48 h. On the procedure:
(§3) Compounds of the present invention were evaluated in an Anti-Fungal Activity Assay. An exemplary procedure for the assay, which measures the susceptibility of various Candida species to anti-fungal compounds, follows. Compounds to be tested (including fluconazole and amphotericin B) were dissolved in DMSO to obtain a solution having a concentration of 1 mg/mL. These stock solutions were sterile filtered using a 0.22 um nylon syringe filter, then diluted in sterile water to achieve a final concentration of 128 μg/mL.
(§4) All species were grown from frozen stock by directly plating on to freshly prepared Sabouraud Dextrose agar (BD, Difco) and incubated overnight in ambient air at 35° C. for 24 h. A direct suspension was prepared in RPMI 1640+MOPS (Lonza, Biowhittaker) by taking individual colonies from the overnight cultures using sterile swabs soaked in sterile saline. The concentration of the suspension was determined using pre-determined standard curves. These suspensions were then diluted down to 5×10^3 CFU/mL to achieve a final concentration of 2.5×10^3 CFU/mL once added to the microtiter plate as per CLSI guidelines (M27-A3, Vol. 28 No. 14).
(§5) Broth microtiter MIC challenge plates were prepared following CLSI guidelines (M27-A3, Vol. 28 No. 14). The original CLSI guidelines focused on reading Candida MICs after 48 h of incubation. As reading after only 24 h offers a clear advantage of patient care, QC limits are being established for all drugs at 24 h. That being said there are no known interpretive breakpoints for amphotericin B at 24 h and the current fluconazole interpretive breakpoints are based on a 48 h reading. The MIC for the test compounds were recorded at 48 h. All MIC determinations were achieved by visually comparing the growth found in the antibiotic challenged wells to that of the growth control.

Assay [6] deals with C. parapsilosis ATCC 22019. Described as above. Type of assay: cell-based. The conditions noted are these: Lodderomyces parapsilosis, ATCC22019, 48 h, 3 replicates, MIC read at 48 h. On the procedure: as §3, §4, §5
The test system of assay [7] is C. krusei ATCC 6258. The description is as above. The class given is cell-based, Candida krusei. To be noted: Pichia kudriavzevii, ATCC6258, 48 h, 3 replicates, MIC read at 48 h. The protocol:
as §3, §4, §5

Assay [8] has as its system Fusarium moniliforme (Fm). The assay is described as follows: Growth inhibition assay of fungal pathogens. Type of assay: cell-based. The conditions noted are these: Fusarium verticillioides, 48 h, read-out: Concentration at 90% Inhibition Fm. On the procedure: (§6) Compounds of the present invention were evaluated in a growth inhibition assay to determine the ability to control the growth of fungal pathogens, such as Botrtyis cinerea (Bc), Collectotrichum graminicola (Cg), Diplodia maydis (Dm), Fusarium moniliforme (Fm), Fusarium virguhforme (Fv), Phytophthora capsici (Pc), Rhizoctonia solani (Rs), and Septoria tritici (St). Compounds to be tested were dissolved in DMSO at 2.5 mg/ml to produce compound stock solutions (“stocks”). Stocks were diluted with DMSO by a five-fold dilution in a 96-well stock plate, and two sets of final concentrations of 50, 10, and 2 ppm or 2, 0.4, and 0.08 ppm were obtained in vitro. A set of positive controls was also prepared, with various concentrations of Soraphen (2, 0.4, and 0.08 ppm), Metalaxyl (1.1, 0.22, and 0.04 ppm), and Metconazole (2, 0.4, and 0.08 ppm or 0.2, 0.04, and 0.008 ppm) after the five-fold dilutions. Negative controls on each plate included 2% DMSO, water, and a blank (media+2% DMSO). Fungal spores were isolated from previously sub-cultured plates of Botrtyis cinerea (Bc), Collectotrichum graminicola (Cg), Diplodia maydis (Dm), Fusarium moniliforme (Fm), Fusarium virguliforme (Fv), Phytophthora capsici (Pc), and Septoria tritici (St). The isolated spores were diluted to individual concentrations with a 17% V8 liquid media. For Rhizoctonia solani (Rs) and Pythium irregulare, 1.5 mm mycelial plugs were used in place of spores and ¼ Potato Dextrose Broth (PDB) was used for dilution. The spore concentrations and plug sizes were based on growth curves generated at 48 hours for each pathogen. In a second 96-well plate, the spores or mycelial plugs, media, diluted compound solutions, and controls were combined. Once the compound was added, a true final concentration of compound in each well was measured by an OD600 reading, which adjusted for any compound precipitation that might have occurred in the well. Plate readings were repeated at both 24 and 48 hours. The blank negative control was used as a background subtraction. Additional visual ratings were performed at both 24 and 48 hours for checking on precipitation and confirming efficacy. Visual and OD600 ratings of the compounds at 48 hours were compared to the 2% DMSO negative control, and the percent of pathogen growth inhibition was determined based on those values.

The subject of assay [9] is Botrtyis cinerea (Bc). The assay is described as follows: Growth inhibition assay of fungal pathogens. To be noted: 48 h, Table 4b, read-out: Concentration at 90% Inhibition Bc. Type of assay: cell-based. On the procedure: as §6
The subject of assay [10] is Collectotrichum graminicola (Cg). The assay is described as follows: Growth inhibition assay of fungal pathogens. The class given is cell-based. To be noted: 48 h, Table 4b, read-out: Concentration at 90% Inhibition Cg. The protocol:
as §6

Assay [11] concerns Diplodia maydis (Dm). The assay is described as follows: Growth inhibition assay of fungal pathogens. The conditions noted are these: Stenocarpella maydis, 48 h, Table 4b, read-out: Concentration at 90% Inhibition Dm. Type of assay: cell-based. The protocol: as §6
Assay [12] has as its system Fusarium virguliforme (Fv). The assay is described as follows: Growth inhibition assay of fungal pathogens. To be noted: 48 h, Table 4b, read-out: Concentration at 90% Inhibition Fv. Type of assay: cell-based. On the procedure: as §6
The test system of assay [13] is Phytophthora capsici (Pc). The assay is described as follows: Growth inhibition assay of fungal pathogens. The class given is cell-based. The conditions noted are these: 48 h, Table 4b, read-out: Concentration at 90% Inhibition Pc. The protocol:
as §6

Assay [14] has as its system Rhizoctonia solani (Rs). The assay is described as follows: Growth inhibition assay of fungal pathogens. Type of assay: cell-based. To be noted: 48 h, Table 4b, read-out: Concentration at 90% Inhibition Rs. On the procedure: as §6
The subject of assay [15] is Septoria tritici (St). The assay is described as follows: Growth inhibition assay of fungal pathogens. The class given is cell-based. To be noted: Zymoseptoria tritici, 48 h, Table 4b, read-out: Concentration at 90% Inhibition St. On the procedure:
as §6

Sequence of hACC2 (O00763 whole entry): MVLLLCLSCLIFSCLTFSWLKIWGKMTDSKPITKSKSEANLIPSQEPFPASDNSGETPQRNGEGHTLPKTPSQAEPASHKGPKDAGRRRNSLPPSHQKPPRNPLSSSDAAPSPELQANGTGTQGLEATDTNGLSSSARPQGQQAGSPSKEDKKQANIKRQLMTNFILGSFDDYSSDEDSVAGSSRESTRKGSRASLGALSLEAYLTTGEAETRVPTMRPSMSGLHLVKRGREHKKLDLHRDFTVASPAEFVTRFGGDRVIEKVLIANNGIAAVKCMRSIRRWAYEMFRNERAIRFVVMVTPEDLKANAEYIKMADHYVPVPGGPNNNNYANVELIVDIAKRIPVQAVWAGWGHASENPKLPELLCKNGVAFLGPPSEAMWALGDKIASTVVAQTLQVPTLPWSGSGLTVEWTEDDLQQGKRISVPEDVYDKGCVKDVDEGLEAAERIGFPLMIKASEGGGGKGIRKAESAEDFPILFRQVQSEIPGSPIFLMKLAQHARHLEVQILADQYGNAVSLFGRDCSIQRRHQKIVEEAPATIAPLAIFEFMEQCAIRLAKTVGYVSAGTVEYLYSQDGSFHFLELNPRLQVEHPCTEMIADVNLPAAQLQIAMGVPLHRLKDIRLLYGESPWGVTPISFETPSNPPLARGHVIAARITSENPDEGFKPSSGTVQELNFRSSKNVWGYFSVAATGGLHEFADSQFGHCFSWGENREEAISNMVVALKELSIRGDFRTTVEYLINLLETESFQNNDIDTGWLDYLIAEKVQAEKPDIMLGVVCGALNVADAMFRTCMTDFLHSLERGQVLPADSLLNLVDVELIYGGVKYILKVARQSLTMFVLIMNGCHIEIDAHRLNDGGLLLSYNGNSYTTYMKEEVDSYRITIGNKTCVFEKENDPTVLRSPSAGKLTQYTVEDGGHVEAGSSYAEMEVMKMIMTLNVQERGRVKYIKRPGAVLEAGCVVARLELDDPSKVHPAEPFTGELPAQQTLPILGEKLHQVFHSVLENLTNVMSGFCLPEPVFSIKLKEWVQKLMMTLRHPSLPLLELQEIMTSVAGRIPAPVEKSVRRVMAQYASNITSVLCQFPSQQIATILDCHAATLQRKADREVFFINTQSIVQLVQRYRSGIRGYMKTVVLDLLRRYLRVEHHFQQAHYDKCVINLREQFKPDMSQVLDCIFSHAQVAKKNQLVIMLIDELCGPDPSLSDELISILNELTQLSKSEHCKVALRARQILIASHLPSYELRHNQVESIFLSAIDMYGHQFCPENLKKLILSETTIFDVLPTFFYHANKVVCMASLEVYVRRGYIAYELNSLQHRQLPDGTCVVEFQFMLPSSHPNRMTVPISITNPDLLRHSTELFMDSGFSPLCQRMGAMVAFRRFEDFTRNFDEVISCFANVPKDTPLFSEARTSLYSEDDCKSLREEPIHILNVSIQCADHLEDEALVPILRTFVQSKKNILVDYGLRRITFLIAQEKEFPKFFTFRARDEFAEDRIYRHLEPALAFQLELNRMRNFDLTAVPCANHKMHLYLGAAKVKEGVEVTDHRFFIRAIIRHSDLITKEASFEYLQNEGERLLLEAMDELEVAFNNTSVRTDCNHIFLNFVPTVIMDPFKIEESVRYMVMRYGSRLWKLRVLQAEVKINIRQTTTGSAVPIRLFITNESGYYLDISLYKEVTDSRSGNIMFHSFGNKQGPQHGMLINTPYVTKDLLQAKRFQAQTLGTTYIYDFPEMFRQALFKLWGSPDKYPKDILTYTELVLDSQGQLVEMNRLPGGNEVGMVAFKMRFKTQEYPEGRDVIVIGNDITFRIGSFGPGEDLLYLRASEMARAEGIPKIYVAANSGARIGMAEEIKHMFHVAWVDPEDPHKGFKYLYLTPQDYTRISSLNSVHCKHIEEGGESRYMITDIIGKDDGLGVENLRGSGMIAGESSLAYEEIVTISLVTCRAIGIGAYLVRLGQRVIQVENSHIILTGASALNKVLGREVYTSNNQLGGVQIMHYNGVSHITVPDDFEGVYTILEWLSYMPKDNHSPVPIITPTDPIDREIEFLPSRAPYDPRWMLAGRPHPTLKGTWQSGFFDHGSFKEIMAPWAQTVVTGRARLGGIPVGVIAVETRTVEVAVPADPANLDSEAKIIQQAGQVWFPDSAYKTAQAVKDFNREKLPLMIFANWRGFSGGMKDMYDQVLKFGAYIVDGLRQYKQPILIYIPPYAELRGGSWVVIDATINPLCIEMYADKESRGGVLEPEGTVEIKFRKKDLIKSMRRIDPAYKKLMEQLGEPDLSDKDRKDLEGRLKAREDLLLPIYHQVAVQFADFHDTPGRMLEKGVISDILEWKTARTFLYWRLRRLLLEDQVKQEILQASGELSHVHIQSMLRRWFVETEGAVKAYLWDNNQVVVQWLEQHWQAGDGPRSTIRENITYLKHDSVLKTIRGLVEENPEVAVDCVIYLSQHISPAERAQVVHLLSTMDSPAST

Take `O=C(c1c2ccccc2cc2ccccc12)N1CCC(N2CCC[C@@H](C(=O)N3CCOCC3)C2)CC1` [CP-640186]: the IC50 in assay [1] and in [2] was approximately 60 nM each time.
For the molecule `CCNC(=O)C(C)(C)n1c(=O)c2c(C)c(C(=O)OCC)sc2n(C[C@H](OC2CCOCC2)c2ccccc2OC)c1=O` [Compound I-1, ethyl (R)-3-(1-(ethylamino)-2-methyl-1-oxopropan-2-yl)-1-(2-(2-methoxyphenyl)-2-((tetrahydro-2H-pyran-4-yl)oxy)ethyl)-5-methyl-2,4-dioxo-1,2,3,4-tetrahydrothieno[2,3-d]pyrimidine-6-carboxylate], the IC50 in assay [3] (Table 2a) fell in the range of 3 to 10 nM; in assay [3] (Table 2b (additional results)), 3 to 10 nM; in assay [4] (Table 2a), 0.6 to 3 nM; in assay [4] (Table 2b (additional results)) it was 0.3 to 3 nM. The MIC in assay [5] (Table 3a) was 0.25 to 1 µg/mL (≈ 0.415 to 1.66 µM); in [5] (Table 3b (additional results)), 0.25 to 1 µg/mL (≈ 0.415 to 1.66 µM); in assay [6] (Table 3a) it was 1.1 to 2 µg/mL (≈ 1.83 to 3.32 µM); in [6] (Table 3b (additional results)) it was 2.1 to 4 µg/mL (≈ 3.49 to 6.65 µM); in assay [7] (Table 3a) it was 0.25 to 1 µg/mL (≈ 0.415 to 1.66 µM); in assay [7] (Table 3b (additional results)), 2.1 to 4 µg/mL (≈ 3.49 to 6.65 µM). For the same molecule, the IC90 in [8] (Table 4a) and in assay [8] (Table 4b) was not below 50 µg/mL each time.
With `CCOC(=O)c1sc2c(c1C)c(=O)n([C@H](C)C(=O)N(C)C(C)C)c(=O)n2C[C@H](OCCO)c1cc(F)ccc1OC` [Compound I-30, ethyl 1-((R)-2-(5-fluoro-2-methoxyphenyl)-2-(2-hydroxy-ethoxy)ethyl)-3-((R)-1-(isopropyl(methyl)amino)-1-oxopropan-2-yl)-5-methyl-2,4-dioxo-1,2,3,4-tetrahydrothieno[2,3-d]pyrimidine-6-carboxylate], the 50% inhibitory concentration (IC50) was in the range of 10 to 40 nM in [3] (Table 2b (additional results)) and 0.3 to 3 nM in assay [4] (Table 2b (additional results)). For the same molecule, the results for the minimal inhibitory concentration (MIC) in assay [5] (Table 3b (additional results)), in assay [6] (Table 3b (additional results)) and in assay [7] (Table 3b (additional results)) were 1.1 to 2 µg/mL (≈ 1.85 to 3.37 µM), 0.25 to 1 µg/mL (≈ 0.421 to 1.68 µM) and 0.25 to 1 µg/mL (≈ 0.421 to 1.68 µM), respectively.
Take `CCOC(=O)c1sc2c(c1C)c(=O)n(C(C)(C)C(=O)NC(C)C)c(=O)n2CCc1cc(F)ccc1OCCC#N` [Compound I-45, ethyl 1-(2-(2-cyanoethoxy)-5-fluorophenethyl)-3-(1-(isopropylamino)-2-methyl-1-oxopropan-2-yl)-5-methyl-2,4-dioxo-1,2,3,4-tetrahydro-thieno[2,3-d]pyrimidine-6-carboxylate]: the concentration for half-maximal inhibition (IC50) in assay [3] (Table 2b (additional results)) was not below 40 nM; in [4] (Table 2b (additional results)) it was 3 to 10 nM. The IC90 was 10 µg/mL (≈ 17.5 µM) in assay [9]; not below 50 µg/mL in assay [10]; not below 50 µg/mL in [11]; 2 µg/mL (≈ 3.49 µM) in [8] (Table 4b); 2 µg/mL (≈ 3.49 µM) in [12]; not below 50 µg/mL in assay [13]. The IC90 in assay [14] and in [15] was not below 50 µg/mL throughout.
